The results in this text go back to patent publication US20250332173A1, “COMPOUNDS AND METHODS FOR MODULATING NUCLEIC ACID SPLICING” (REMIX THERAPEUTICS INC., priority 2021, published 2025).

SMILES strings stand for the structures. Like-named read-outs stand apart in the source and are kept apart here.

Experiment [1] has as its system HTT mRNA. Nature of the experiment: RT-qPCR splicing assay, HTT canonical junction (CJ) and alternative junction (AJ) mRNA. To be noted: Homo sapiens; for AC50: increase in HTT alternative junction (AJ) mRNA, read-out: HTT AJ AC50. Format: cell-based, human. A digest of the protocol:
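Splicing switches were read by TaqMan RT-qPCR on lysates, quantifying exon-exon junctions of the canonical and alternative-exon isoforms. Lysates came from K562 (GAPDH/GUSB reference) or A673 (PPIA reference) cells exposed 24 h to compound in 11 threefold steps from 10 uM, with DMSO ≤0.25%.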
A general note: In qPCR the cycle at which signal appears reflects the starting amount.

The subject of experiment [2] is Target C. Nature of the experiment: HiBiT protein abundance assay, Target C (Promega Nano-Glo HiBiT Lytic Detection System, knock-in K562 cell line). Format: cell-based, human. To be noted: Homo sapiens, K562, 24 h, HiBiT K562 cell line, 24 hours, top dose 10 μM; read-out: Effect on protein abundance, Target C (IC50 category). A digest of the protocol:
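Protein abundance was read by Nano-Glo HiBiT lytic luminescence after 24 h compound exposure (10-point, threefold series from 10 μM final) of HiBiT knock-in K562 cells. Parental K562 served as baseline; the 50%-abundance concentration was interpolated from a four-parameter logistic fit.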

Where [3] appears, read: decrease in HTT canonical junction (CJ) mRNA, RT-qPCR, read-out: HTT CJ IC50.
[4] abbreviates: canonical junction qPCR panel, Table 5, read-out: HTT (decrease in CJ mRNA levels, IC50).
[5] abbreviates: Table 5 panel, canonical junction qPCR, compound concentration having 50% response in CJ decrease, read-out: HTT IC50 (decrease in CJ mRNA levels).

For `Cc1cn2nc(-c3ccc4c(=O)n(C5C[C@@H](C)N[C@H](C)C5)ncc4n3)cc(C)c2n1` (stereo in doubt) [Compound 1537, 2-(2,8-dimethylimidazo[1,2-b]pyridazin-6-yl)-6-[(2R,6R)-2,6-dimethyl-4-piperidyl]pyrido[2,3-d]pyridazin-5-one], the IC50 in experiment [1] (setting [3]), in experiment [1] (setting [4]) and in experiment [2] was 100 to 1000 nM throughout. In addition, in experiment [1] (RT-qPCR), the AC50 lay within 100 to 1000 nM.
Consider `Cc1cn2nc(-c3ccc4c(=O)n([C@H]5CC(C)N[C@@H](C)C5)ncc4n3)cc(C)c2n1` (stereo in doubt) [Compound 1538, 2-(2,8-dimethylimidazo[1,2-b]pyridazin-6-yl)-6-[(2S,6S)-2,6-dimethyl-4-piperidyl]pyrido[2,3-d]pyridazin-5-one], for which the IC50 in experiment [1] (setting [3]), in experiment [1] (setting [4]) and in experiment [2] was 100 to 1000 nM in each case. In experiment [1] (RT-qPCR), the AC50 lay in the range of 100 to 1000 nM.
Consider `Cc1cn2cc(-c3ccc4c(=O)n(C5CCNCC5)cnc4c3)cc(F)c2n1` [Compound 205], for which the IC50 in experiment [1] (setting [3]), in experiment [1] (setting [5]) and in experiment [2] was 100 to 1000 nM each time. The concentration at half-maximal activity (AC50) in experiment [1] (RT-qPCR) was in the range of 100 to 1000 nM.
On to `Cn1cc2cc(-c3ccc4c(=O)n(C5CCNCC5)cnc4c3)cc(F)c2n1` [Compound 206], for which the IC50 in experiment [1] (setting [3]), in experiment [1] (setting [5]) and in experiment [2] was 100 to 1000 nM throughout. For the same compound, in experiment [1] (RT-qPCR), the AC50 lay within 100 to 1000 nM.
`Cc1cn2cc(-c3ccc4c(=O)n(C5CCN(C)CC5)cnc4c3)cc(F)c2n1` [Compound 207]: the IC50 in experiment [1] (setting [3]), in experiment [1] (setting [5]) and in experiment [2] was 1000 to 10000 nM in each case. The AC50 in experiment [1] (RT-qPCR) fell in the range of 1000 to 10000 nM.
Take `CN1CCC(n2cnc3cc(-c4ccc5nn(C)cc5c4)ccc3c2=O)CC1` [Compound 208]: the results for the IC50 in experiment [1] (setting [3]), in experiment [1] (setting [5]) and in experiment [2] were 1000 to 10000 nM, over 10000 nM and over 10000 nM, respectively. The AC50 in experiment [1] (RT-qPCR) was over 10000 nM.
`CN1CCC(n2cnc3cc(-c4cc(F)c5nn(C)cc5c4)ccc3c2=O)CC1` [Compound 209]: the IC50 in experiment [1] (setting [3]) was 100 to 1000 nM; in experiment [1] (setting [5]), 1000 to 10000 nM; in experiment [2] it was over 10000 nM. Besides, the AC50 in experiment [1] (RT-qPCR) lay within 1000 to 10000 nM.
As for `Cc1cn2cc(-c3ccc4c(=O)n(C5CCNCC5)cnc4c3F)cc(F)c2n1` [Compound 210], the IC50 in experiment [1] (setting [3]), in experiment [1] (setting [5]) and in experiment [2] was 1000 to 10000 nM in each case. Further, the AC50 in experiment [1] (RT-qPCR) was in the range of 1000 to 10000 nM.
Regarding `Cc1nc2c(F)cc(-c3ccc4c(c3)CCN(C3CCNCC3)C4=O)cc2o1` [Compound 215], the IC50 in experiment [1] (setting [3]), in experiment [1] (setting [5]) and in experiment [2] was 1000 to 10000 nM throughout. Also, the AC50 in experiment [1] (RT-qPCR) is 1000 to 10000 nM.
With `Cc1cn2cc(-c3ccc4c(c3)CCN(C3CCNCC3)C4=O)cc(Cl)c2n1` [Compound 216, 6-[8-chloro-2-methylimidazo[1,2-a]pyridin-6-yl]-2-(piperidin-4-yl)-3,4-dihydroisoquinolin-1-one], the IC50 in experiment [1] (setting [3]), in experiment [1] (setting [5]) and in experiment [2] was 1000 to 10000 nM throughout. Also, the AC50 in experiment [1] (RT-qPCR) lay in the range of 1000 to 10000 nM.
As for `Cc1cn2cc(-c3ccc4c(c3)CCN(C3CCNCC3)C4=O)cc(C)c2n1` [Compound 217, 6-[2,8-dimethylimidazo[1,2-a]pyridin-6-yl]-2-(piperidin-4-yl)-3,4-dihydroisoquinolin-1-one], the values for the IC50 in experiment [1] (setting [3]), in experiment [1] (setting [5]) and in experiment [2] were 1000 to 10000 nM, 1000 to 10000 nM and over 10000 nM, respectively. Besides, the AC50 in experiment [1] (RT-qPCR) lay in the range of 1000 to 10000 nM.
With `Cc1cn2cc(-c3ccc4c(c3)CCN(C3CCNCC3)C4=O)c(C)cc2n1` [Compound 218, 6-[2,7-dimethylimidazo[1,2-a]pyridin-6-yl]-2-(piperidin-4-yl)-3,4-dihydroisoquinolin-1-one], the IC50 in experiment [1] (setting [3]), in experiment [1] (setting [5]) and in experiment [2] was 1000 to 10000 nM each time. Besides, the AC50 in experiment [1] (RT-qPCR) lay within 1000 to 10000 nM.

The IC50 is the concentration that gives 50% inhibition. A word on the AC50: it is the midpoint of the concentration-response curve, whichever way the signal moves.
